Experimental data as given in PMC12428237, “Study on the Calcium Transport-Promoting Property and Mechanism of the Peptide–Calcium Complex DEEENDQVK–Ca Based on a Caco-2 Monolayer Model” (Foods, 2025).
Read-outs that look alike come from different tables or passages of the source.

Columns and labels:
[1] = test system: Caco-2 monolayer; details: cited from earlier work; for increase of intestinal calcium transport compared with the control group: within 30 min
Procedure: With 1~2 mg/mL of DK, the tran ... || This study’s results align with earlier findings regarding peptide–calcium complexes.

[2] = test system: Caco-2 cells; experiment: MTT cell viability assay; assay type: cell-based, human; details: 24 h, concentration range 0~5 mg/mL, n = 3
Procedure: Caco-2 cells were maintained in complete DMEM medium containing 20% (v/v) FBS, 1% non-essential amino acids, and penicillin-streptomycin (100 U/mL−100 μg/mL) at 37 °C under 5% CO2 atmosphere, with medium replacement every 48 h. At 80–90% confluency, cells were seeded into 96-well plates (1 × 10^4 cells/well). After 24 h of incubation, the original medium was exchanged for a new solution containing CaCl2 (0~5 mg/mL), DK (0~5 mg/mL), DK + CaCl2 (1:1 w/w, 0~5 mg/mL), DK–Ca (0~5 mg/mL), 2-APB (0~75 μmol/L), cytochalasin D (0~2 μg/mL), and mβCD (0~5 mmol/L). After 24 h of incubation, the cell viability was assessed by MTT [21].

[3] = test system: Caco-2 monolayer; experiment: Transepithelial permeability of sodium fluorescein (monolayer integrity); assay type: in vitro ADME, human; details: Transwell, after 21 days of differentiation, mean ± SD
Procedure: (§1) Caco-2 cells (passages 15–30) were seeded at 1 × 10^5 cells/mL in Transwell chambers (12 mm, 0.4 μm pores, polycarbonate membrane, 1.12 cm^2 area) to establish a Caco-2 monolayer model. The culture medium (0.5 mL in the apical and 1.5 mL in the basolateral) was refreshed every 48 h (first week), then daily (next two weeks). The integrity of the Caco-2 cell monolayer model was verified by the following multiple indicators: Transepithelial electrical resistance (TEER) was monitored every 48 h using an epithelial voltohmmeter (RE1600, Beijing Jingong Hongtai Technology Co., Ltd., Beijing, China). Alkaline phosphatase (ALP) activity was measured on days 8, 12, 14, 16, and 21 after inoculation utilizing an ALP assay kit, following the manufacturer’s protocol. Transepithelial permeability was evaluated using sodium fluorescein following the method of Qiu et al..

[4] = cited from earlier work
Source text: Dietary calcium supplementation offers a direct solution to calcium deficiency. However, traditional calcium supplements (e.g., calcium carbonate) suffer from limitations such as low bioavailability and gastrointestinal irritation, which lead to reduced efficacy. […] This enhanced performance is primarily attributed to the peptide ... || This study’s results align with earlier findings regarding peptide–calcium complexes.

[5] = test system: Caco-2 monolayer; experiment: Effect of dietary components (vitamin D3, phytic acid) on calcium transport in Caco-2 monolayer; assay type: cell-based, human; details: 120 min, control without dietary component, n = 3
Procedure: Vitamin D3 (0.5 μmol/L, dissolved in 0.1% ethanol) or phytic acid (1.8 mM, with a of phytic acid/calcium molar ratio of 0.24) was added to the AP side to evaluate the effect of dietary components on calcium transport. The group without an added dietary component served as the control group. After 120 min incubation, the BL side solution was collected for calcium transport analysis.

[6] = test system: Caco-2 monolayer; experiment: Calcium transport assay in Caco-2 monolayer model; assay type: cell-based, human; details: 7.5 mM CaCl2 on AP side, AP to BL, HBSS pH 7.4, 37 °C, 120 min, calcium colorimetric kit 575 nm; mean ± SD, n = 3
Procedure: as §1
Caco-2 monolayer models with a TEER value exceeding 500 Ω·cm^2 are permitted for calcium transport studies. Following three sequential washes with Hank’s balanced salt solution (HBSS; calcium/magnesium-free, pH 7.4), monolayers were equilibrated at 37 °C for 30 min. Afterward, the Transwell chambers were moved to fresh receiver plates for transport assays.
Concentration-dependent CaCl2 transport assay: 0.5 mL of CaCl2 solution (1.5~10 mM) was added to the apical (AP) side. The basolateral (BL) side contained 1.5 mL prewarmed HBSS. After 120 min incubation at 37 °C and 5% CO2, the BL side solution was collected for calcium transport analysis.
Time-dependent CaCl2 transport assay: The AP side contained 0.5 mL of 7.5 mM CaCl2 solution, and the BL side 1.5 mL prewarmed HBSS. At designated intervals (30~180 min), 1 mL BL side solution was collected and replaced with equal volumes of fresh HBSS buffer to maintain consistency.
Different concentrations of DK solution (0.5~2 mg/mL, 0.5 mL) containing 7.5 mM CaCl2, or 0.5 mL of DK–Ca solution (0.5~2 mg/mL), were added to the AP side. The BL side contained 1.5 mL prewarmed HBSS. The control group contained 7.5 mM CaCl2 alone on the AP side. At designated intervals (30~180 min), 1 mL BL side solution was collected and replaced with equal volumes of fresh HBSS buffer to maintain consistency.
Calcium concentration in the collected sample was measured using a calcium colorimetric assay kit at 575 nm. Transported calcium was calculated as follows:(1) Tn=1.5Cn+1×∑k=1n-1Ck […]

[7] = test system: Caco-2 monolayer; experiment: Fluo-4 AM fluorescence imaging of intracellular calcium influx; assay type: cell-based, human; details: samples containing 150 μg/mL calcium, 24 h, Fluo-4 AM 4 μmol/L, confocal microscope
Procedure: Fluorescence imaging based on intracellular calcium influx was conducted to assess the calcium transport-promoting effect in the Caco-2 monolayer following the method of Men et al.. Log-phase cells were seeded at 1.5 × 10^5 cells/well in 35 mm laser confocal dishes and gently agitated to ensure uniform distribution. Cultures were maintained at 37 °C in 5% CO2 with daily medium replacement until confluent monolayers formed. Subsequently, CaCl2, DK + CaCl2, and DK–Ca solutions (each containing 150 μg/mL calcium) were added separately. The group without an added sample served as the control group. Following 24 h of incubation, the cells were washed thrice with prewarmed calcium-/magnesium-free HBSS buffer (pH 7.2). Under light-protected conditions, 200 µL of Fluo-4 AM (4 μmol/L) was applied to cover the cells. Following 30 min incubation at 37 °C and subsequent washes, cells were dark-adapted for 10 min at room temperature for de-esterification. Imaging was conducted using a confocal microscope (excitation at 496 nm, Zeiss LSM980 Airyscan2, Carl Zeiss, Germany ), followed by quantification of the fluorescence intensity with ImageJ 1.54 g software.

[8] = test system: Caco-2 monolayers; details: 120 min; cited from earlier work
Procedure: To assess component changes in DK–Ca after 120 min of calcium-promoting transport, solutions collected from the AP and BL sides of the monolayer were subjected to RP-HPLC analysis.

AHVGMSGEEPE-Ca [AHV-Ca, rice peptide–calcium complex]
transported calcium ([1]; Caco-2 monolayers): 61.75 ± 13.23 μg/well
transported calcium, fold versus CaCl2 ([1]; Caco-2 monolayers): 2.16 fold

GPAGPHGPVG [tilapia collagen-derived peptide]
increase of intestinal calcium transport compared with the control group [1]: 89%

C=C1[C@@H](C)[C@H]2[C@H](Cc3ccccc3)NC(=O)[C@]23[C@H](OC(C)=O)/C=C/[C@@](C)(O)C(=O)[C@@H](C)C/C=C/[C@H]3[C@@H]1O [cytochalasin D, Cytochalasin D]
cytotoxicity to Caco-2 cells [2]: no cytotoxicity

O=C([O-])c1ccccc1-c1c2ccc(=O)cc-2oc2cc([O-])ccc12.[Na+].[Na+] [sodium fluorescein]
apparent permeability coefficient (Papp) ([3]; 30 min): 7.17±0.22 ×10^-7 cm/s
apparent permeability coefficient (Papp) ([3]; 60 min): 7.47±0.25 ×10^-7 cm/s
apparent permeability coefficient (Papp) ([3]; 90 min): 7.56±0.64 ×10^-7 cm/s
apparent permeability coefficient (Papp) ([3]; 120 min): 8.35 ± 0.15 ×10-7 cm/s

AHVGMSGEEPE [rice protein-derived peptide]
calcium-binding capacity [4]: 55.69 mg/g

LVFL
calcium-binding capacity [4]: 79.50 mg/g

[Ca+2].[Cl-].[Cl-] [CaCl2]
reduction of transported calcium by phytic acid compared to the control group ([5]; phytic acid 1.8 mM (phytic acid/calcium molar ratio 0.24) on AP side): 49.11%
increase of transported calcium by vitamin D3 compared to the control group ([5]; vitamin D3 0.5 μmol/L on AP side): 22.68%
transported calcium [6]: 27.55 ± 1.20 μg/well
fluorescence intensity (intracellular calcium influx) compared to the control group [7]: significantly increased
decrease of calcium absorption by phytic acid [1]: 79.86%

YQEPVIAPKL [tilapia collagen-derived peptide]
increase of intestinal calcium transport compared with the control group [1]: 130%

YQEPVPVRGPFPIIV
cleavage after culture in Caco-2 monolayers [8]: cleaved into […] and […]

DHTKE [DHTKE–calcium complex, egg white hydrolysate-derived DHTKE–calcium complex]
increase of transported calcium compared to the calcium-free control group [1]: seven-fold

FDHIVY [tilapia collagen-derived peptide]
increase of intestinal calcium transport compared with the control group [1]: 202%

YGTGL
calcium-binding capacity [4]: 76.03 mg/g

VLPVPQK
calcium-binding capacity [4]: 129.46 mg/g
